Experimental data: patent US11660293B2, “Substituted 2-azabicyclo[3.1.1]heptane and 2-azabicyclo[3.2.1]octane derivatives as orexin receptor antagonists” (Chronos Therapeutics Limited, priority 2017, dated 2023)

Experiments:
[1] = target: human Orexin type 1 receptors (Homo sapiens (Human), UniProt O43613); test: Scintillation Proximity Assay (SPA) binding assay, [3H]SB-674042 displacement, CHO-hOX1 membranes; conditions: Table 2, [3H]SB-674042 2 nM
Method: Scintillation Proximity Assay (SPA) Binding Assays CHO cells stably transfected with human Orexin type 1 receptors (CHO-hOX1) or HEK-293 cells transiently transfected with human Orexin type 2 receptors (HEK-hOX2) were collected after 16 h induction with 5 mM sodium butyrate. […] The binding was performed in a final volume of 200 μl. 100 μl of hOX1 or hOX2 beads-membranes suspension were added to 100 μl of [^3H]SB-674042 or [^3H]EMPA solutions (radioligand concentration 2 nM final in the assay), into the 96-well Isoplates containing the 2 μl/well of compounds to be tested. Nonspecific binding was measured in the presence of 1 μM Almorexant. Assay plates were then incubated at room temperature for 3 h before being counted in a Microbeta scintillation counter (PerkinElmer). Data were analysed by non-linear regression analysis using XLfit Software.

[2] = target: human Orexin type 2 receptors (Homo sapiens (Human), UniProt O43614); test: Scintillation Proximity Assay (SPA) binding assay, [3H]EMPA displacement, HEK-hOX2 membranes; conditions: Table 2, [3H]EMPA 2 nM
Method: Scintillation Proximity Assay (SPA) Binding Assays
CHO cells stably transfected with human Orexin type 1 receptors (CHO-hOX1) or HEK-293 cells transiently transfected with human Orexin type 2 receptors (HEK-hOX2) were collected after 16 h induction with 5 mM sodium butyrate. The cell pellets were re-suspended, homogenized in 15 mM Tris/HCl pH=7.5, 1 mM EGTA, 0.3 mM EDTA, 2 mM MgCl2, protease inhibitors and centrifuged at 40,000 g (20 min, 4° C.). After re-suspension, homogenization and centrifugation as above, the final pellets were re-suspended in 75 mM Tris/HCl pH=7.5, 1 mM EGTA, 0.3 mM EDTA, 12.5 mM MgCl2, 250 mM Sucrose, protease inhibitors, divided into aliquots and frozen down at −80° C.
CHO-hOX1 cell membranes (6 μg ml^−1) or HEK-hOX2 membranes (8 μg ml^−1) were pre-coupled with 1.0 mg ml^−1 of Wheatgerm Agglutinin-coated Yttrium Silicate (YSi-WGA) SPA beads (Perkin Elmer) in buffer containing 25 mM HEPES pH=7.4, 1 mM CaCl2), 5 mM MgCl2, 0.01% (w/v) BSA, 0.02% (w/v) Pluronic F-127 by shaking at room temperature for 2.5-3 h.
The binding was performed in a final volume of 200 μl. 100 μl of hOX1 or hOX2 beads-membranes suspension were added to 100 μl of [^3H]SB-674042 or [^3H]EMPA solutions (radioligand concentration 2 nM final in the assay), into the 96-well Isoplates containing the 2 μl/well of compounds to be tested. Nonspecific binding was measured in the presence of 1 μM Almorexant. Assay plates were then incubated at room temperature for 3 h before being counted in a Microbeta scintillation counter (PerkinElmer).
Data were analysed by non-linear regression analysis using XLfit Software.

Sequence of human Orexin type 1 receptors (O43613 whole entry): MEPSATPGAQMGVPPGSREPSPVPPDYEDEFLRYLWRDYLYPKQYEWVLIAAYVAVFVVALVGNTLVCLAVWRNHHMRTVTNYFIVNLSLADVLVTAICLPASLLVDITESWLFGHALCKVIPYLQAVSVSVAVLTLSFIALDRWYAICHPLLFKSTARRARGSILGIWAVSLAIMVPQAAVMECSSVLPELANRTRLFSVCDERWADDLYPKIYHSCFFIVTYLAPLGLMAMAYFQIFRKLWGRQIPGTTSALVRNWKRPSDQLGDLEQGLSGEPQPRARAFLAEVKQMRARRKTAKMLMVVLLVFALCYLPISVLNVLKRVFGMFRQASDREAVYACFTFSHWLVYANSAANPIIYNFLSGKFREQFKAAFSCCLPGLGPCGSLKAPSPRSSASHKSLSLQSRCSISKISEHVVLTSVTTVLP
Sequence of human Orexin type 2 receptors (O43614 whole entry): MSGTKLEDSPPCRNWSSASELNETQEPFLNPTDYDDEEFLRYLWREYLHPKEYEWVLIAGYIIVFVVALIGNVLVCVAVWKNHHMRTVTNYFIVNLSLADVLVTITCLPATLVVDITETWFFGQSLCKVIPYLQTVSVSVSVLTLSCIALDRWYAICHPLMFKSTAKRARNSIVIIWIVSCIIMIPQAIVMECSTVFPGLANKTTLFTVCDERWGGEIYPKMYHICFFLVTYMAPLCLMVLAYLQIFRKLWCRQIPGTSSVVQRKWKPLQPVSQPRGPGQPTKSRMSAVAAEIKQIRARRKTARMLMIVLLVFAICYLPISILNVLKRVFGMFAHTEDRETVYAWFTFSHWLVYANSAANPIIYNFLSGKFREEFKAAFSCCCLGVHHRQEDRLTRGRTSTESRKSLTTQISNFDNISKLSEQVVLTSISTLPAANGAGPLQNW

| Compound | OX1 pKi (SPA binding) [1] | OX2 pKi (SPA binding) [2] |
| --- | --- | --- |
| Cc1nc(C(=O)N2C3CC(C3)[C@@H](C)C2CNc2nc3ccc(F)cc3s2)c(-c2ncccn2)s1 (mixture of isomers) [Example 162, cis-6-fluoro-N-({4-methyl-2-[2-methyl-5-(pyrimidin-2-yl)-1,3-thiazole-4-carbonyl]-2-azabicyclo[3.1.1]heptan-3-yl]methyl)-1,3-benzothiazol-2-amine] | 8.83 | 5.59 |
| C[C@@H]1C2CC(C2)N(C(=O)c2cc(F)ccc2-n2nccn2)C1CNc1nc2ccc(F)cc2s1 (mixture of isomers) [Example 168, cis-6-fluoro-N-({2-[5-fluoro-2-(2H-1,2,3-triazol-2-yl)benzoyl]-4-methyl-2-azabicyclo[3.1.1]heptan-3-yl}methyl)-1,3-benzothiazol-2-amine] | 8.46 | 5.88 |
| C[C@@H]1C2CC(C2)N(C(=O)c2cc(Cl)ccc2-n2nccn2)C1CNc1nc2ccc(F)cc2s1 (mixture of isomers) [Example 171, cis-N-({2-[5-chloro-2-(2H-1,2,3-triazol-2-yl)benzoyl]-4-methyl-2-azabicyclo[3.1.1]heptan-3-yl}methyl)-6-fluoro-1,3-benzothiazol-2-amine] | 8.9 | 6.32 |
| CCOc1ccc(C)nc1C(=O)N1C2CC(C2)[C@@H](C)C1CNc1nc2ccc(F)cc2s1 (mixture of isomers) [Example 174, cis-N-{[2-(3-ethoxy-6-methylpyridine-2-carbonyl)-4-methyl-2-azabicyclo[3.1.1]heptan-3-yl]methyl}-6-fluoro-1,3-benzothiazol-2-amine] | 8.82 | 7.06 |
| Cc1ccc(-n2nccn2)c(C(=O)N2C3CC(C3)[C@@H](C)C2CNc2ccc(C(F)(F)F)cn2)n1 (mixture of isomers) [Example 181, cis-N-({4-methyl-2-[6-methyl-3-(2H-1,2,3-triazol-2-yl)pyridine-2-carbonyl]-2-azabicyclo[3.1.1]heptan-3-yl}methyl)-5-(trifluoromethyl)pyridin-2-amine] | 8.09 | 5.09 |
| C[C@@H]1C2CC(C2)N(C(=O)c2cc(F)ccc2-n2nccn2)C1CNc1cnc2ccccc2n1 (mixture of isomers) [Example 187, cis-N-({2-[5-fluoro-2-(2H-1,2,3-triazol-2-yl)benzoyl]-4-methyl-2-azabicyclo[3.1.1]heptan-3-yl}methyl)quinoxalin-2-amine] | 8.19 | 5.63 |
| C[C@@H]1C2CC(C2)N(C(=O)c2cc(F)ccc2-n2nccn2)C1CNc1ccc(C(F)(F)F)cn1 (mixture of isomers) [Example 190, cis-N-({2-[5-fluoro-2-(2H-1,2,3-triazol-2-yl)benzoyl]-4-methyl-2-azabicyclo[3.1.1]heptan-3-yl}methyl)-5-(trifluoromethyl)pyridin-2-amine] | 7.8 | 4.98 |
| Cc1ccc(-n2nccn2)c(C(=O)N2C3CC(C3)[C@@H](C)C2CNc2ncc(C(F)(F)F)cn2)n1 (mixture of isomers) [Example 193, cis-N-({4-methyl-2-[6-methyl-3-(2H-1,2,3-triazol-2-yl)pyridine-2-carbonyl]-2-azabicyclo[3.1.1]heptan-3-yl}methyl)-5-(trifluoromethyl)pyrimidin-2-amine] | 7.57 | 4.64 |
| Cc1ccc(-n2nccn2)c(C(=O)N2C3CC(C3)[C@@H](C)C2CNc2ccc(F)c(C)n2)n1 (mixture of isomers) [Example 196, cis-5-fluoro-6-methyl-N-({4-methyl-2-[6-methyl-3-(2H-1,2,3-triazol-2-yl)pyridine-2-carbonyl]-2-azabicyclo[3.1.1]heptan-3-yl}methyl)pyridin-2-amine] | 7.65 | 5.74 |
